Measured values reported in ChEMBL document CHEMBL4342436, “Artemisia: a promising plant for the treatment of cancer” (Bioorg Med Chem, 2020).
Values after ≈ are worked out from the molar mass of the structure shown.

Legend:
MDA-MB-435 = assay: Cytotoxicity against human MDA-MB-435 cells after 72 hrs by MTT assay; format: functional, cell-based; conditions: MDA-MB-435, 72 h
COLO 205 = assay: Cytotoxicity against human COLO205 cells after 72 hrs by MTT assay; format: functional, cell-based; conditions: COLO 205, 72 h
HeLa [1] = assay: Cytotoxicity against human HeLa cells; format: functional, cell-based
P388 = assay: Cytotoxicity against mouse P388 cells; format: functional; conditions: read-out: ED50 (the source's name)
HT-29 = assay: Cytotoxicity against human HT-29 cells; format: functional; conditions: read-out: ED50 (the source's name)
Lymphocyte [2] = assay: Induction of apoptosis in human Lymphocyte cells assessed as apoptotic cells at 2 ug/ml after 24 hrs by Annexin V-FITC/propidium iodide staining based fluorescence microscopic method relative to control; format: cell-based
MCF7 [3] = assay: Cytotoxicity against human MCF7 cells; format: functional; conditions: read-out: ED50 (the source's name)
[4] = Induction of apoptosis in human SH-EP1 cells assessed as apoptotic cells at 300 uM after 72 hrs by Annexin V-FITC/propidium iodide staining based flow cytometric analysis relative to control; format: functional
[5] = Cytotoxicity against rat pancreatic tumour cells assessed as reduction in cell viability after 24 hrs by MTT assay; format: functional, cell-based
[6] = Growth inhibition of human A375M cells at 150 uM after 72 hrs by MTT assay relative to control; format: functional; conditions: read-out: GI
SK-N-AS = assay: Induction of apoptosis in human SK-N-AS cells assessed as apoptotic cells at 300 uM after 72 hrs by Annexin V-FITC/propidium iodide staining based flow cytometric analysis relative to control; format: functional
BE(2)-C = assay: Induction of apoptosis in human BE(2)-C cells assessed as apoptotic cells at 300 uM after 72 hrs by Annexin V-FITC/propidium iodide staining based flow cytometric analysis relative to control; format: functional
KB = assay: Cytotoxicity against human KB cells; format: functional; conditions: read-out: ED50 (the source's name)
[7] = Growth inhibition of human A375P cells at 150 uM after 72 hrs by MTT assay relative to control; format: functional; conditions: read-out: GI
SK-N-DZ = assay: Induction of apoptosis in human SK-N-DZ cells assessed as apoptotic cells at 300 uM after 72 hrs by Annexin V-FITC/propidium iodide staining based flow cytometric analysis relative to control; format: functional
NCI-H460 = assay: Cytotoxicity against human NCI-H460 cells after 24 hrs by MTT assay; format: functional, cell-based; conditions: NCI-H460, 24 h
MCF7 [8] = assay: Cytotoxicity against human MCF7 cells after 24 hrs by MTT assay; format: functional, cell-based; conditions: MCF7, 24 h
HepG2 = assay: Cytotoxicity against human HepG2 cells after 24 hrs by MTT assay; format: functional, cell-based; conditions: HepG2, 24 h
[9] = Cytotoxicity against human QGY cells assessed as reduction in cell viability after 24 hrs by MTT assay; format: functional, cell-based
HeLa [10] = assay: Cytotoxicity against human HeLa cells assessed as reduction in cell viability after 24 hrs by MTT assay; format: functional, cell-based
[11] = Cytotoxicity against human HO8910 cells assessed as reduction in cell viability after 24 hrs by MTT assay; format: functional, cell-based; conditions: HO-8910, 24 h
[12] = Cytotoxicity against human 95-D cells assessed as reduction in cell viability after 24 hrs by MTT assay; format: functional, cell-based
U2OS = assay: Cytotoxicity against human U2OS cells assessed as cell viability after 48 hrs in presence of allicin by MTT assay relative to control; format: functional
PANC-1 [13] = assay: Cytotoxicity against human PANC1 cells assessed as cell viability after 24 hrs by MTT assay relative to control; format: functional
MGC-803 = assay: Cytotoxicity against human MGC803 assessed as cell viability at 160 mg/l after 48 hrs by MTT assay relative to control; format: functional; conditions: MGC-803, 48 h, read-out: Activity
H22 = assay: Antitumour activity against mouse H22 cells transplanted in mouse assessed as tumour growth inhibition at 300 mg/kg after 7 days relative to control; format: functional; conditions: H22, 168 h, read-out: TGI
CFPAC-1 [14] = assay: Cytotoxicity against human CFPAC-1 cells assessed as cell viability after 24 hrs by MTT assay relative to control; format: functional
HGC-27 = assay: Cytotoxicity against human HGC27 assessed as cell viability at 160 mg/l after 48 hrs by MTT assay relative to control; format: functional; conditions: HGC-27, 48 h, read-out: Activity
CFPAC-1 [15] = assay: Antitumour activity against human CFPAC-1 cells xenografted in ip dosed nude BALB/c mouse assessed as tumor weight for 18 days; format: functional
MG-63 [16] = assay: Cytotoxicity against human MG63 cells assessed as cell viability after 48 hrs in presence of allicin by MTT assay relative to control; format: functional
BGC-823 [17] = assay: Cytotoxicity against human BGC823 assessed as cell viability at 160 mg/l after 48 hrs by MTT assay relative to control; format: functional; conditions: BGC-823, 48 h, read-out: Activity
PANC-1 [18] = assay: Antitumour activity against human PANC1 cells xenografted in ip dosed nude BALB/c mouse assessed as tumor weight for 18 days; format: functional
Y79 = assay: Induction of cell death in human Y79 cells by propidium iodide staining based flow cytometric analysis relative to control; format: functional
Lymphocyte [19] = assay: Cytotoxicity against human lymphocytes; format: cell-based
MG-63 [20] = assay: Antitumour activity against human MG63 cells xenografted in nude BALB/c mouse assessed as tumour weight at […], ip for 5 days co-treated with allicin; format: functional
HCT-116 [21] = assay: Cytotoxicity against human p53 positive HCT116 cells assessed as reduction in cell viability after 48 hrs by MTT assay; format: functional; conditions: HCT-116, 48 h, read-out: LD50 (the source's name)
C6 = assay: Induction of apoptosis in rat C6 cells assessed as apoptotic cells at 200 uM after 24 hr in presence of holo-transferrin by Annexin V-FITC/propidium iodide staining based flow cytometric analysis relative to control; format: functional
[22] = Cytotoxicity against human U251/CP2 cells assessed as reduction in cell viability after 24 hrs by MTT assay; format: functional, cell-based; conditions: U-251, 24 h
HCT-116 [23] = assay: Induction of apoptosis in human HCT116 cells assessed as increase in apoptotic cells at 40 uM after 24 hrs by Annexin V-FITC/propidium iodide staining based flow cytometric analysis relative to control; format: functional
[24] = Cytotoxicity against human U373 cells assessed as reduction in cell viability after 24 hrs by MTT assay; format: functional, cell-based, U-373MG ATCC; conditions: U373 MG
U-937 [25] = assay: Induction of apoptosis in human U937 cells assessed as increase in apoptotic cells at 60 uM after 24 hrs by Annexin V-FITC/propidium iodide staining based flow cytometric analysis relative to control; format: functional
PC-14 = assay: Induction of apoptosis in human PC14 cells assessed as increase in apoptotic cells at 30 uM after 24 hrs by Annexin V-FITC/propidium iodide staining based flow cytometric analysis relative to control; format: functional
U-937 [26] = assay: Antitumour activity against human U937 cells xenografted in NOD/SCID mouse assessed as tumor growth inhibition at 50 mg/kg, ip for 20 days relative to control; format: functional; conditions: U-937, ip, 480 h, read-out: TGI
BGC-823 [27] = assay: Cytotoxicity against human BGC823 cells; format: functional, cell-based
HCT-8 = assay: Cytotoxicity against human HCT8 cells; format: functional, cell-based

SMILES: C=C1C(=O)O[C@H]2[C@H]1[C@@H](O)C[C@]1(C)O[C@@]13C(=O)C=C(C)[C@H]23
- IC50 (MDA-MB-435): 7 to 10 µM
- IC50 (COLO 205): 7 to 10 µM

SMILES: O=c1cc(-c2ccc(O)cc2)oc2cc(O)cc(O)c12 [APIGENIN]
- IC50 (HeLa [1]): 6.09 µM

SMILES: C[C@@H]1CC[C@H]2[C@@H](C)C(=O)O[C@@H]3O[C@@]4(C)CC[C@@H]1[C@]32OO4 [ARTEMISININ]
- EC50 (P388): 1.25 to 9.62 µg/mL (≈ 4.43 to 34.1 µM)
- EC50 (HT-29): 1.25 to 9.62 µg/mL (≈ 4.43 to 34.1 µM)
- Activity (Lymphocyte [2]): 70%
- EC50 (MCF7 [3]): 1.25 to 9.62 µg/mL (≈ 4.43 to 34.1 µM)
- Activity [4]: 23%
- IC50 [5]: 45 µM
- inhibition of growth at 150 µM [6]: 60%
- Activity (SK-N-AS): 22%
- Activity (BE(2)-C): 42%
- EC50 (KB): 1.25 to 9.62 µg/mL (≈ 4.43 to 34.1 µM)
- inhibition of growth at 150 µM [7]: 68%
- Activity (SK-N-DZ): 40%

SMILES: CC1=C[C@@H]2[C@@H]([C@@H](C)C(=O)O)CC[C@@](C)(O)[C@@H]2C[C@H]1O
- IC50 (NCI-H460): 26.8 to 48.7 µM
- IC50 (MCF7 [8]): 26.8 to 48.7 µM
- IC50 (HepG2): 26.8 to 48.7 µM

SMILES: C=CC(=C)CC/C=C(/CCC=C(C)C)COC(C)=O
- IC50 [9]: 17.9 to 73.3 µM
- IC50 (HeLa [10]): 17.9 to 73.3 µM
- IC50 [11]: 17.9 to 73.3 µM
- IC50 [12]: 17.9 to 73.3 µM

SMILES: C[C@H]1[C@H](OC(=O)CCC(=O)O)O[C@@H]2O[C@@]3(C)CC[C@H]4[C@H](C)CC[C@@H]1[C@@]24OO3 [ARTESUNATE]
- Activity (U2OS): <25%
- Activity (PANC-1 [13]): <10%
- viability at 160 µg/mL (MGC-803): < 20%
- inhibition in vivo at 300 mg/kg (H22): 49.1%
- Activity (CFPAC-1 [14]): <10%
- viability at 160 µg/mL (HGC-27): < 20%
- Activity (CFPAC-1 [15]): <0.4 g
- Activity (MG-63 [16]): <25%
- viability at 160 µg/mL (BGC-823 [17]): < 20%
- Activity (PANC-1 [18]): <0.4 g
- Activity (Y79): 80%
- IC50 (Lymphocyte [19]): 80 µM
- Activity (MG-63 [20]): <0.5 g

SMILES: CCCCCCCCCCCCCCCCCCCCCCOC(=O)/C=C/c1ccc(O)cc1
- CC50 (HCT-116 [21]): 33.8 µM

SMILES: C[C@H]1[C@@H](O)O[C@@H]2O[C@@]3(C)CC[C@H]4[C@H](C)CC[C@@H]1[C@@]24OO3 [ARTENIMOL]
- Activity (C6): 66.42%
- IC50 [22]: 1.17 to 23.6 µg/mL (≈ 4.11 to 82.9 µM)
- Activity (HCT-116 [23]): 48.3%
- IC50 [24]: 1.17 to 23.6 µg/mL (≈ 4.11 to 82.9 µM)
- Activity (U-937 [25]): 70%
- Activity (PC-14): 45%
- inhibition in vivo at 50 mg/kg (U-937 [26]): 70%

SMILES: CC1=CC(=O)C2=C(C)C[C@@H](O[C@@H]3O[C@H](CO)[C@@H](O)[C@H](O)[C@H]3O)[C@@H]3[C@@H](OC(=O)[C@H]3C)[C@@H]12
- IC50 (NCI-H460): 26.8 to 48.7 µM
- IC50 (MCF7 [8]): 26.8 to 48.7 µM
- IC50 (HepG2): 26.8 to 48.7 µM

SMILES: C=C(C(=O)OC)[C@@H]1CC[C@@]2(C)C(=O)C=C[C@@](C)(O)[C@@H]2[C@H]1O
- IC50 (BGC-823 [27]): 6.25 µM
- IC50 (HCT-8): 9.13 µM

SMILES: C=C1C(=O)O[C@H]2[C@H]1[C@@H](OC(=O)C(C)CC)CC(=C)[C@]1(O)CC=C(C)[C@H]21 (stereo not given in full)
- IC50 (MDA-MB-435): 7 to 10 µM
- IC50 (COLO 205): 7 to 10 µM
